From patent US8440634B2, “Bicyclic derivatives of morphine-6-glucuronide, preparation method thereof and use of same in therapeutics” (Sanofi, priority 2008, dated 2013)

Tests used:
[1] = system: nociceptive reflex response (tail removal caused by painful heat stimulus); assay: "Tail-Flick" test, analgesic activity; assay type: in vivo, male Swiss mice; conditions: mice
Description: Tests consisting in measuring the in vivo activity of the compounds of the invention on a nociceptive reflex response were performed. In this approach, the latency of the animal's nociceptive reflex response is measured as a pain indicator.
The analgesic activity was determined by means of the “tail-flick” test in male Swiss mice (Iffa Credo). This test is based on the spontaneous nociceptive reflex of removal of the animal's tail caused by a painful heat stimulus (infrared source). The “tail-flick” test (D'Amour-Smith test, 1941, Pharmacol. Exp. Ther.; 72: 74-79) consists, after administering a product, in placing a mouse's tail at the focal point of the infrared source so as to produce a nociceptive heat stimulus (surface temperature of about 55-60° C.). The mouse's reaction time (RT) (latency between the moment when the light beam is switched on and the moment when the mouse removes its tail) was measured in duplicate at different times ranging from 20 minutes to 120 minutes after administration of the product. The heat intensity is regulated such that this removal reflex is between 0.5 and 3.5 seconds in the control animals, and arbitrarily represents the criterion for minimum analgesia (0%). Two reaction time measurements were taken before administration of the product for each mouse, to establish a baseline measurement time. A maximum time of 8 seconds was chosen as the maximum reaction time so as not to induce tissue damage by burning the animals, and arbitrarily represents the criterion for maximum analgesia (100%). The reaction time is increased by the analgesics relative to a control animal not receiving any treatment. The products were administered subcutaneously and orally at doses of between 1.25 and 30 mg/kg. […]
The percentage of analgesic activity (% MPE) is determined by the following formula: %MPE=(RTpost-administration−RTpre-administration)*100/(RTmax−RTpre-administration).

With `CN1CC[C@]23c4c5ccc(O)c4O[C@H]2C(O[C@@H]2OC(c4nc6n(n4)CCC(O)N6)[C@@H](O)C(O)C2O)C=CC3[C@H]1C5` (stereo partly drawn) [morphin-6-yl 5-C-(5-hydroxy-4,5,6,7-tetrahydro[1,2,4]triazolo[1,5-a]pyrimidin-2-yl)-β-D-xylopyranoside] the ED50 ([1]; Mus musculus, sc, 1 h, subcutaneous, determined 60 minutes after administration) was < 1.25 mg/kg, the “duration of the analgesic action” value ([1]; subcutaneous administration) was “more than 120 minutes” and the “maximum percentage of analgesic activity (% MPE max index)” value ([1]; subcutaneous, dose of 1.25 mg/kg) was 80%. It also gave a melting point of 201 °C.
